Key:
[1] = system: NQO1 activity in rat kidney; test: NQO1 activity assay in rat kidney (single administration); assay type: in vivo; conditions: SD rats (male), oral 3 mg/kg single administration
Procedure: Experimental Example 3: NQO1 Activity Assay in Rat Kidney (Single Administration)
The test compound solution for administration was prepared by dissolving or suspending the test compound in 0.5 w/v % methylcellulose solution.
The test compound was administered orally (3 mg/kg, 2 mL/kg) to SD rats (male, Japan SLC). The solvent group was used as a control group. The test compound group was anesthetized with isoflurane 24 and 48 hr after administration, and the control group was anesthetized with isoflurane 24 hr after administration, and the rats were euthanized by abdominal aortotomy with blood release. The right kidney was immediately removed, and the renal cortex and medullary portion of the kidney were cut out for measurement of NQO1 activity.
Homogenization buffer (10 mM Tris-HCl, 250 mM sucrose, pH 7.4) and assay buffer (25 mM Tris-HCl, 0.7 mg/mL BSA, pH 7.4) were prepared.
1 mL of homogenization buffer was added to the collected kidney samples, and the organs were homogenized uniformly in ice using a Polytron homogenizer (PHYSCOTRON, Microtec Co. Ltd.) or TissueLyser II (QIAGEN). Homogenized samples were centrifuged (MX-305, TOMY) at 9000×g for 20 minutes at 4° C. The supernatant was then scalped with homogenization buffer to approximately 2 ml and ultracentrifuged (centrifuge; OptimaL-100XP, rotor; 50.4 Ti, Beckman Coulter) at 100,000×g for 60 min at 4° C. The protein concentration of the supernatant was measured with the Protein Assay BCA kit (#06385-00, Nacalai Tesque), and samples were diluted to 5 μg protein/30 μL with homogenization buffer. 2,6-Dichlorophenolindophenol (DCPIP) reaction buffer (assay buffer with 200 μM NADPH and 160 μM DCPIP, containing 1/1000 volume of DMSO or 20 μM dicoumarol DMSO solution) was prepared immediately before the measurement.
The 230 μL of each concentration of calibration solution was added to a 96-well plate (CORNING, 9017). To 30 μL of the sample solution was added 200 μL of DMSO-containing DCPIP reaction buffer or dicoumarol-containing DCPIP reaction buffer. The absorbance at 600 nm was immediately measured on a SpectraMax PLUS384 (Molecular devices) at 1 minute intervals for 10 minutes. […] A regression line was used to create the calibration curve.
The difference between the DCPIP decrease in the wells with DMSO-containing DCPIP reaction buffer and the DCPIP decrease in the wells with dicoumarol-containing DCPIP reaction buffer was divided by the amount of protein (mg) and time (min) to obtain NQO1 activity (nmol/mg/min). In Table 4 below, the NQO1 activity of the test compound-administered groups is expressed as a percentage of the control group.

[2] = target: GST-fused human Keap1 (amino acid residues: 325-642) protein (Homo sapiens (Human), UniProt Q14145); test: FP assay (in vitro): inhibition of binding between Nrf2 and Keap1 by fluorescence polarization; conditions: 20 nM GST-fused human Keap1, 10 nM FITC-labeled Nrf2 peptide, 2 hr at room temperature
Chain of GST-fused human Keap1 (amino acid residues: 325-642) protein (Q14145 325-624 limits assumed): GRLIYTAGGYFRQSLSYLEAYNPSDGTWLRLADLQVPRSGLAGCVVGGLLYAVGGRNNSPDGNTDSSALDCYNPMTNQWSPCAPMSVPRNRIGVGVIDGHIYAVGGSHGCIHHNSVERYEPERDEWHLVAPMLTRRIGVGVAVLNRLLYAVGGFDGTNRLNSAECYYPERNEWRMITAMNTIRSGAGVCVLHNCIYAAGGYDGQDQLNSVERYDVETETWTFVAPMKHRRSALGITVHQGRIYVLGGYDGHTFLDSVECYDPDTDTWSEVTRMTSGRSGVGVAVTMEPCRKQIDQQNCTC

[3] = system: NQO1 activity in Hepa1c1c7 cells; test: NAD(P)H: quinone oxidoreductase-1 (NQO1) enzyme induction assay (in vitro); assay type: cell-based, mouse; conditions: Mus musculus, Hepa-1c1c7, NQO1 activity upon addition of 400 nM of test compound, about 48 hr, ratio from the base without the compound
Procedure, shortened: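 Mouse Hepa1c1c7 hepatoma cells were treated with 400 nM compound for about 48 h, then lysed with digitonin/EDTA. NQO1 activity was measured as menadione-mediated MTT reduction with a G6P/G6PDH NADPH-regenerating system, stopped with dicoumarol, and read at A610. Values are the activity ratio versus untreated base wells.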

| SMILES | IC50 [2] [nM] | NQO1 activity 24 hr later ([1]; 24 hr after administration) | NQO1 activity 48 hr later ([1]; 48 hr after administration) | fold induction at 0.4 µM [3] |
| --- | --- | --- | --- | --- |
| Cc1c([C@H](CC(=O)O)c2cc(CN3Cc4nc(O)ccc4O[C@H](C4CC4)C3)c3sccc3c2)ccc2c1nnn2C [Example 5, (3R)-3-(7-{[(2R)-2-Cyclopropyl-7-hydroxy-2,3-dihydropyrido[2,3-f][1,4]oxazepin-4(5H)-yl]methyl}-1-benzothiophen-5-yl)-3-(1,4-dimethyl-1H-benzotriazol-5-yl)propanoic acid] | 10 to 30 | 9.4 percentage of the control group | 10.9 percentage of the control group | > 5 |
| CC[C@H]1Cc2cccnc2CN(Cc2cc([C@@H](CC(=O)O)c3cnc4c(nnn4C)c3C)cc3ccsc23)C1 [Example 75, (3R)-3-(3,7-Dimethyl-3H-[1,2,3]triazolo[4,5-b]pyridin-6-yl)-3-(7-{[(6S)-6-ethyl-5,6,7,9-tetrahydro-8H-pyrido[2,3-c]azepin-8-yl]methyl}-1-benzothiophen-5-yl)propanoic acid] | 10 to 30 |  |  | > 5 |
| CC[C@H]1Cc2cccnc2CN(Cc2cc([C@H](CC(=O)O)c3cnc4c(nnn4C)c3C)cc3ccsc23)C1 [Example 76, (3S)-3-(3,7-Dimethyl-3H-[1,2,3]triazolo[4,5-b]pyridin-6-yl)-3-(7-{[(6S)-6-ethyl-5,6,7,9-tetrahydro-8H-pyrido[2,3-c]azepin-8-yl]methyl}-1-benzothiophen-5-yl)propanoic acid] | 10 to 30 |  |  | > 5 |
| Cc1c([C@@H](CC(=O)O)c2cc(CN3Cc4cnc(O)cc4OC4(CC4)C3)c3sccc3c2)ccc2c1nnn2C [Example 79, (3S)-3-(1,4-Dimethyl-1H-benzotriazol-5-yl)-3-{7-[(8′-hydroxy-3′H-spiro[cyclopropane-1,2′-pyrido[3,4-f][1,4]oxazepin]-4′ (5′H)-yl)methyl]-1-benzothiophen-5-yl}propanoic acid] | 10 to 30 |  |  | 3 to 5 |
| CC[C@H]1Cc2ccc(O)nc2CN(Cc2cc([C@@H](CC(=O)O)c3cnc4c(nnn4C)c3C)cc3ccsc23)C1 [Example 80, (3R)-3-(3,7-Dimethyl-3H-[1,2,3]triazolo[4,5-b]pyridin-6-yl)-3-(7-{[(6S)-6-ethyl-2-hydroxy-5,6,7,9-tetrahydro-8H-pyrido[2,3-c]azepin-8-yl]methyl}-1-benzothiophen-5-yl)propanoic acid] | 10 to 30 |  |  | > 5 |
| CC[C@H]1Cc2ccc(O)nc2CN(Cc2cc([C@H](CC(=O)O)c3cnc4c(nnn4C)c3C)cc3ccsc23)C1 [Example 81, (3S)-3-(3,7-Dimethyl-3H-[1,2,3]triazolo[4,5-b]pyridin-6-yl)-3-(7-{[(6S)-6-ethyl-2-hydroxy-5,6,7,9-tetrahydro-8H-pyrido[2,3-c]azepin-8-yl]methyl}-1-benzothiophen-5-yl)propanoic acid] | 10 to 30 |  |  | > 5 |
| Cc1c([C@@H](CC(=O)O)c2cc(CN3Cc4c(ccnc4O)OC4(CC4)C3)c3sccc3c2)ccc2c1nnn2C [Example 82, (3S)-3-(1,4-Dimethyl-1H-benzotriazol-5-yl)-3-{7-[(6′-hydroxy-3′H-spiro[cyclopropane-1,2′-pyrido[3,4-f][1,4]oxazepin]-4′(5′H)-yl)methyl]-1-benzothiophen-5-yl}propanoic acid] | 10 to 30 |  |  | 3 to 5 |
| CC[C@H]1Cc2ccc(O)nc2CN(Cc2cc([C@@H](CC(=O)O)c3cc(C)c4c(nnn4C)c3C)cc3ccsc23)C1 [Example 87, (3R)-3-(7-{[(6S)-6-Ethyl-2-hydroxy-5,6,7,9-tetrahydro-8H-pyrido[2,3-c]azepin-8-yl]methyl}-1-benzothiophen-5-yl)-3-(1,4,7-trimethyl-1H-benzotriazol-5-yl)propanoic acid] | ≤ 10 |  |  | > 5 |
| CC[C@@H]1CN(Cc2cc(C(CC(=O)O)c3ccc4c(nnn4CC)c3C)cc3ccsc23)Cc2nc(C)ccc2O1 (stereo partly drawn) [Example 92, 3-(1-Ethyl-4-methyl-1H-benzotriazol-5-yl)-3-(7-{[(2R)-2-ethyl-7-methyl-2,3-dihydropyrido[2,3-f][1,4]oxazepin-4(5H)-yl]methyl}-1-benzothiophen-5-yl)propanoic acid] | 30 to 300 |  |  | > 5 |
| CC[C@@H]1CN(Cc2cc(C(CC(=O)O)c3ccc4c(nnn4C)c3C)cc3ccsc23)Cc2nc(C(F)(F)F)ccc2O1 (stereo partly drawn) [Example 93, 3-(1,4-Dimethyl-1H-benzotriazol-5-yl)-3-(7-{[(2R)-2-ethyl-7-(trifluoromethyl)-2,3-dihydropyrido[2,3-f][1,4]oxazepin-4(5H)-yl]methyl}-1-benzothiophen-5-yl)propanoic acid] | ≤ 10 |  |  | > 5 |

Continued, in another order:

| IC50 [2] [nM] | SMILES | NQO1 activity 24 hr later ([1]; 24 hr after administration) | NQO1 activity 48 hr later ([1]; 48 hr after administration) | fold induction at 0.4 µM [3] |
| --- | --- | --- | --- | --- |
| ≤ 10 | CC[C@@H]1CN(Cc2cc([C@@H](CC(=O)O)c3ccc4c(nnn4C)c3C)cc3ccsc23)Cc2nc(NC)ccc2O1 [Example 77, (3R)-3-(1,4-Dimethyl-1H-benzotriazol-5-yl)-3-(7-{[(2R)-2-ethyl-7-(methylamino)-2,3-dihydropyrido[2,3-f][1,4]oxazepin-4(5H)-yl]methyl}-1-benzothiophen-5-yl)propanoic acid] |  |  | > 5 |
| ≤ 10 | CC[C@@H]1CN(Cc2cc([C@H](CC(=O)O)c3ccc4c(nnn4C)c3C)cc3ccsc23)Cc2nc(NC)ccc2O1 [Example 78, (3S)-3-(1,4-Dimethyl-1H-benzotriazol-5-yl)-3-(7-{[(2R)-2-ethyl-7-(methylamino)-2,3-dihydropyrido[2,3-f][1,4]oxazepin-4(5H)-yl]methyl}-1-benzothiophen-5-yl)propanoic acid] |  |  | 3 to 5 |
| ≤ 10 | CC[C@H]1Cc2ccc(N)nc2CN(Cc2cc([C@@H](CC(=O)O)c3ccc4c(nnn4C)c3C)cc3ccsc23)C1 [Example 83, (3R)-3-(7-{[(6S)-2-Amino-6-ethyl-5,6,7,9-tetrahydro-8H-pyrido[2,3-c]azepin-8-yl]methyl}-1-benzothiophen-5-yl)-3-(1,4-dimethyl-1H-benzotriazol-5-yl)propanoic acid] |  |  | > 5 |
| ≤ 10 | CC[C@H]1Cc2ccc(O)nc2CN(Cc2cc([C@H](CC(=O)O)c3ccc4c(nnn4C)c3Cl)cc3ccsc23)C1 [Example 84, (3S)-3-(4-Chloro-1-methyl-1H-benzotriazol-5-yl)-3-(7-{[(6S)-6-ethyl-2-hydroxy-5,6,7,9-tetrahydro-8H-pyrido[2,3-c]azepin-8-yl]methyl}-1-benzothiophen-5-yl)propanoic acid] |  |  | > 5 |
| ≤ 10 | CC[C@H]1Cc2ccc(O)nc2CN(Cc2cc([C@H](CC(=O)O)c3cc(Cl)c4c(nnn4C)c3C)cc3ccsc23)C1 [Example 85, (3S)-3-(7-Chloro-1,4-dimethyl-1H-benzotriazol-5-yl)-3-(7-{[(6S)-6-ethyl-2-hydroxy-5,6,7,9-tetrahydro-8H-pyrido[2,3-c]azepin-8-yl]methyl}-1-benzothiophen-5-yl)propanoic acid] |  |  | > 5 |
| ≤ 10 | CC[C@H]1Cc2ccc(O)nc2CN(Cc2cc([C@H](CC(=O)O)c3cc(C)c4c(nnn4C)c3C)cc3ccsc23)C1 [Example 86, (3S)-3-(7-{[(6S)-6-Ethyl-2-hydroxy-5,6,7,9-tetrahydro-8H-pyrido[2,3-c]azepin-8-yl]methyl}-1-benzothiophen-5-yl)-3-(1,4,7-trimethyl-1H-benzotriazol-5-yl)propanoic acid] |  |  | > 5 |
